Reference: patent US6680367B1, “Fluorescent CRF receptor-binding peptides” (Advanced Bioconcept Company, priority 1995, dated 2004)
Peptide text beside a SMILES is read from it. GABA = NCCCC(=O)O

Key:
Format in all cases: binding
[1] = system: CRF1, CRF2; assay: Displacement of 125I labeled CRF from CRF receptor subtypes, recombinant cells; conditions: Receptor CRF1, CRF2 (one value printed for both), displacing radiolabeled CRF
Procedure: (§1) Determination of IC50 for labeled peptides. […] In order to fully dissolve the peptide, the sample was reconstituted in 20 uL DMSO, vortexing well to ensure that all powder was completely dissolved, and then adding 0.48 mL of double distilled water. The stock solution was aliquoted to avoid repeated freezing and thawing of peptide. Unused aliquots were stored at −20° C. (protected from light) for maximum 24 hr.
(§2) Data for native and labeled peptides were analyzed by non-linear curve fitting. This included statistical evaluation of fit and calculation of IC50 and Ki values.

[2] = biological target: T1, CRF1 (Homo sapiens, UniProt P34998); assay: Displacement of 125I labeled sauvagine from CRF1, recombinant cells
T1 construct: expressed in transfected cells
T1 sequence (P34998 24-415): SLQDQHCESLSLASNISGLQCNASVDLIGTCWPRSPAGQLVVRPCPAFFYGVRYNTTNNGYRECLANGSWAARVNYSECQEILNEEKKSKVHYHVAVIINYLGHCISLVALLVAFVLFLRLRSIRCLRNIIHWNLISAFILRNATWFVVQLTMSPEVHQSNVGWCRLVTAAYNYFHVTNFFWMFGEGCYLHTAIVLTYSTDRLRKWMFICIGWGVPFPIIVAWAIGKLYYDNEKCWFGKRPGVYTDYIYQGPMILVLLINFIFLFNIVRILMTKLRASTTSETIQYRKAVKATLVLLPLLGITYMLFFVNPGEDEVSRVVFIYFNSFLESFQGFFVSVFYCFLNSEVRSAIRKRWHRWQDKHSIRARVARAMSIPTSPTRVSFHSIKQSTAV
Procedure: as §1, §2

[3] = biological target: T2, CRF2 (Homo sapiens, UniProt Q13324); assay: Displacement of 125I labeled sauvagine from CRF2, recombinant cells
T2 construct: expressed in transfected cells
T2 sequence (Q13324 1-411): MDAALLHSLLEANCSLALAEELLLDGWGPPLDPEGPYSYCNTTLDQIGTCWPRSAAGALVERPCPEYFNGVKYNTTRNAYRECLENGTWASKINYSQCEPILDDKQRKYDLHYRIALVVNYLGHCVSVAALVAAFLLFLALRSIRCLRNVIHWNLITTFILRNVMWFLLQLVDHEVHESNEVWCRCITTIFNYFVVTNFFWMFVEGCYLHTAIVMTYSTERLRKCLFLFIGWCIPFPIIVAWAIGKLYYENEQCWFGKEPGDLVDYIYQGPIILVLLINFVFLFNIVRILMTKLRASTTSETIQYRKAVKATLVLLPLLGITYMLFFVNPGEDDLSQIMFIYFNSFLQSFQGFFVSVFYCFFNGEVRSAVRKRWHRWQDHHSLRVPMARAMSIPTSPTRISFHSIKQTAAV
Procedure: as §1, §2

CC[C@H](C)[C@H](NC(=O)[C@@H](NC(=O)[C@H](CC(=O)O)NC(=O)[C@H](CC(C)C)NC(=O)[C@H](CC(C)C)NC(=O)[C@H](CC(C)C)NC(=O)[C@H](CCCNC(=N)N)NC(=O)[C@H](CC(N)=O)NC(=O)[C@H](CC(N)=O)NC(=O)[C@H](C)NC(=O)[C@H](C)NC(=O)[C@H](CCC(N)=O)NC(=O)[C@H](CCC(N)=O)NC(=O)[C@H](CCCCN)NC(=O)[C@H](CCC(=O)O)NC(=O)[C@H](CCCCN)NC(=O)[C@H](CCC(=O)O)NC(=O)[C@H](CCC(N)=O)NC(=O)[C@H](CCCCN)NC(=O)[C@H](CCC(=O)O)NC(=O)[C@@H](NC(=O)[C@H](CCC(=O)O)NC(=O)[C@@H](NC(=O)[C@H](CCSC)NC(=O)[C@H](CCCCN)NC(=O)[C@H](CCCNC(=N)N)NC(=O)[C@H](CC(C)C)NC(=O)[C@H](CC(C)C)NC(=O)[C@H](CCC(=O)O)NC(=O)[C@H](CC(C)C)NC(=O)[C@H](CO)NC(=O)[C@H](CC(C)C)NC(=O)[C@H](CC(=O)O)NC(=O)[C@@H](NC(=O)[C@H](CO)NC(=O)[C@@H](NC(=O)[C@@H]1CCCN1C(=O)[C@@H]1CCCN1C(=O)CNC(=O)[C@@H]1CCC(=O)N1)[C@@H](C)CC)[C@@H](C)CC)[C@@H](C)CC)[C@@H](C)CC)[C@@H](C)O)C(N)=O [Sauvagine, sauvagine] was tested, and the Ki [1] was 7.9 nM.
CC[C@H](C)[C@H](NC(=O)[C@H](CO)NC(=O)[C@H](CC(C)C)NC(=O)[C@H](CO)NC(=O)[C@@H]1CCCN1C(=O)[C@H](CC(N)=O)NC(=O)[C@@H](N)CC(=O)O)C(=O)N[C@@H](CC(=O)O)C(=O)N[C@@H](CC(C)C)C(=O)N[C@H](C(=O)N[C@@H](Cc1ccccc1)C(=O)N[C@@H](Cc1cnc[nH]1)C(=O)N[C@@H](CC(C)C)C(=O)N[C@@H](CC(C)C)C(=O)N[C@@H](CCCNC(=N)N)C(=O)N[C@H](C(=O)N[C@@H](CC(C)C)C(=O)N[C@@H](CC(C)C)C(=O)N[C@@H](CCC(=O)O)C(=O)N[C@@H](CC(C)C)C(=O)N[C@@H](C)C(=O)N[C@@H](CCCNC(=N)N)C(=O)N[C@H](C(=O)N[C@@H](CCC(N)=O)C(=O)N[C@@H](CO)C(=O)N[C@@H](CCC(N)=O)C(=O)N[C@@H](CCCNC(=N)N)C(=O)N[C@@H](CCC(=O)O)C(=O)N[C@@H](CCCNC(=N)N)C(=O)N[C@@H](C)C(=O)N[C@@H](CCC(=O)O)C(=O)N[C@@H](CCC(N)=O)C(=O)N[C@@H](CC(N)=O)C(=O)N[C@@H](CCCNC(=N)N)C(=O)N[C@H](C(=O)N[C@H](C(=O)N[C@@H](Cc1ccccc1)C(=O)N[C@@H](CC(=O)O)C(=O)N[C@@H](CO)C(=O)N[C@H](C(N)=O)C(C)C)[C@@H](C)CC)[C@@H](C)CC)[C@@H](C)O)[C@@H](C)O)[C@@H](C)O [urocortin] (H-DNPSLSIDLTFHLLRTLLELARTQSQRERAEQNRIIFDSV-NH2) was tested, and the Ki [2] was 0.64 nM and the Ki [3] was 4.3 nM.
Compound “fluoresceinyl-sauvagine ({Fluorescein-GABA}-GPPISIDLSLELLRKMIEIEKQEKEKQQAANNRLLLDTI-NH2; listed as Xenopus tropicalis) [Fluo*-sauvagine]” has a Ki [1] of 3.8 nM.
